Values of other authors in PMC8513935.

Experiment: experimental, compiled by the authors from the literature (the ESI cites the sources)

Row | SMILES | log K of transfer, gas to solvent (Hexadecane, 25 C) | log K of transfer, gas to solvent (Water, 25 C) | further results
1 | C=CCCCCCCCCC | 5.02 log10 K | -1.75 log10 K | –
2 | CCCC(C)(C)C | 2.79 log10 K | -2.11 log10 K | –
3 | CCCCCCCCCCCCCO | 7.13 log10 K | 2.38 log10 K | –
4 | O=C1CCCCCC1 | 4.37 log10 K | 3.42 log10 K | –
5 | CCNC(C)=O | 3.84 log10 K | 6.72 log10 K | –
6 | Cc1cccnc1C | 4.04 log10 K | 3.54 log10 K | –
7 | CN1CCCCC1=O | 3.97 log10 K | 4.91 log10 K | –
8 | CCCCC(C)(C)O | 3.68 log10 K | 3.06 log10 K | –
9 | CC(=O)CC(C)C | 3.09 log10 K | 2.24 log10 K | –
10 | CCCCCCCCCCCCCCO | 7.63 log10 K | 2.26 log10 K | log K of transfer, gas to solvent (Decan-1-ol, 25 C): 8.88 log10 K; log K of transfer, gas to solvent (Hexan-1-ol, 25 C): 8.94 log10 K; log K of transfer, gas to solvent (Propan-2-ol, 25 C): 9.05 log10 K
11 | CCCCCC1CCCC1 | 4.6 log10 K | -1.87 log10 K | –
12 | C1C2CC3CC1CC(C2)C3 | 4.93 log10 K | 0.12 log10 K | –
13 | CCCCC(C)CC (stereo not drawn) | 3.51 log10 K | -2.18 log10 K | –
14 | C[C@H]1CC[C@H](C)CC1 | 3.64 log10 K | -1.4 log10 K | –
15 | C1CCCCCCC1 | 4.33 log10 K | -0.63 log10 K | –
16 | CCCC(C)(C)O | 3.24 log10 K | 3.25 log10 K | –
17 | CC(C)CCC(C)(C)C | 3.57 log10 K | -2.15 log10 K | –
18 | CSC | 2.04 log10 K | 1.18 log10 K | log K of transfer, gas to solvent (Hexane, 25 C): 2.17 log10 K
19 | CCCC(=O)CC | 3.27 log10 K | 2.41 log10 K | –

Row | SMILES | log K of transfer, gas to solvent (Hexadecane, 25 C) | log K of transfer, gas to solvent (Water, 25 C) | further results
20 | CCCCCCCCCCCCCCCCCO | 9.16 log10 K | 1.9 log10 K | –
21 | C1CCSC1 | 3.06 log10 K | 1.66 log10 K | –
22 | N | 0.319 log10 K | 3.19 log10 K | log K of transfer, gas to solvent (2-Methylpropan-1-ol, 25 C): 1.86 log10 K; log K of transfer, gas to solvent (Butan-1-ol, 25 C): 1.76 log10 K; log K of transfer, gas to solvent (Butanone, 25 C): 1.42 log10 K; log K of transfer, gas to solvent (CCl4, 25 C): 0.79 log10 K; log K of transfer, gas to solvent (Chlorobenzene, 25 C): 0.999 log10 K; log K of transfer, gas to solvent (Chloroform, 25 C): 1.77 log10 K; log K of transfer, gas to solvent (Ethanol, 25 C): 2.01 log10 K; log K of transfer, gas to solvent (Methanol, 25 C): 2.26 log10 K; log K of transfer, gas to solvent (Propan-1-ol, 25 C): 1.76 log10 K; log K of transfer, gas to solvent (Propan-2-ol, 25 C): 1.74 log10 K; log K of transfer, gas to solvent (Propanone, 25 C): 1.48 log10 K
23 | OC1CCCCCC1 | 4.4 log10 K | 4.02 log10 K | –
24 | CCF | 0.751 log10 K | -0.3 log10 K | log K of transfer, gas to solvent (Tetrahydrofuran, 25 C): 1.31 log10 K
25 | Cc1ccnc(C)c1 | 4 log10 K | 3.57 log10 K | –
26 | CCCSCCC | 4.01 log10 K | 0.94 log10 K | –
27 | CCCF | 1.25 log10 K | -0.24 log10 K | –
28 | O=C1CCCCCCC1 | 4.98 log10 K | 3.38 log10 K | –
29 | CCCCN(C=O)CCCC | 5.62 log10 K | 4.34 log10 K | –
30 | CC(C)(C)C1CCCCC1 | 4.6 log10 K | -1.28 log10 K | –
31 | OC1CCCCCCC1 | 5.05 log10 K | 3.81 log10 K | –
32 | CCCCCCCC(C)C | 4.45 log10 K | -2.27 log10 K | –
33 | OC1CCCC1 | 3.24 log10 K | 4.03 log10 K | log K of transfer, gas to solvent (Propanone, 25 C): 4.6 log10 K
34 | CCCCCCC(C)C | 3.96 log10 K | -2.15 log10 K | –
35 | CCCCCCCCCCCO | 6.12 log10 K | 2.5 log10 K | log K of transfer, gas to solvent (Decan-1-ol, 25 C): 7.53 log10 K
36 | CC1CCCNC1 (stereo not drawn) | 3.23 log10 K | 3.16 log10 K | –
37 | CCCCCCCCCCCCCCCO | 8.14 log10 K | 2.14 log10 K | log K of transfer, gas to solvent (Di-n-butyl ether, 25 C): 9.07 log10 K
